Measurements: patent publication US4221808A, “Novel antihypertensive agent” (Richardson-Merrell Inc., priority 1979, dated 1980)

How the values were obtained:
[1] = system: spontaneously hypertensive rats (SHR); test: Antihypertensive activity in spontaneously hypertensive rats, systolic blood pressure by tail cuff; assay type: in vivo, rat; conditions: oral dose of 50 mg/kg
Procedure: Antihypertensive activity was determined in spontaneously hypertensive rats (SHR) of the Okomotor Aoki strain. Systolic blood pressure of the SHR was measured from the caudal artery by means of an indirect method utilizing a photocell transducer/tail cuff occluder system. Time response relationships were determined for each compound following an oral dose of 50 mg/kg. Data were expressed as mm Hg decrease from control values. Statistical significance was determined using a 2 tailed "t" test comparing drug treatment response values to those obtained from concurrent vehicle treated animals.

[2] = target: T1, β-adrenergic receptor (Cavia porcellus, UniProt H0W3H1); test: β-Adrenergic receptor blocking activity in isolated guinea pig atria, isoproterenol as agonist; assay type: cell-based; conditions: isolated guinea pig atria; agonist isoproterenol; increase in rate; read-out: pA2 for β-adrenergic receptor blocking activity (converted)
T1 construct: isolated guinea pig atria preparation; from tissue; host or cells: guinea pig atria (isolated)
T1 sequence (H0W3H1 1-470): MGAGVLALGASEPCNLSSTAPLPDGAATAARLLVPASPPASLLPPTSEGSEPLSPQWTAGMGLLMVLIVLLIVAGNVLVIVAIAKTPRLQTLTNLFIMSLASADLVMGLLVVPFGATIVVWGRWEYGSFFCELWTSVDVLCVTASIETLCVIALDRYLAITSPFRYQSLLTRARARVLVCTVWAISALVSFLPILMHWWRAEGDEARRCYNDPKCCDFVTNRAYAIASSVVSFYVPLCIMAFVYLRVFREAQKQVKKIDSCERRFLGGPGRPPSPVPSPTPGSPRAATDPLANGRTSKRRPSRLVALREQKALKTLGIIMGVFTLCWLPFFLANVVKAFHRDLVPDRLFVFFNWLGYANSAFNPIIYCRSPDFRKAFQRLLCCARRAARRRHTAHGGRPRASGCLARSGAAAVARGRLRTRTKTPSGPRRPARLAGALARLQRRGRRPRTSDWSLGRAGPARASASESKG
Procedure: (§1) β-Adrenergic receptor blocking activity was determined in vitro by performing cumulative dose-response experiments in the isolated guinea pig atria preparation using isoproterenol as the agonist. The response (increase in rate) of the guinea pig atria preparation in the presence of logarithmically increasing concentration of the compounds being tested were expressed as percent of the maximal attainable response. Relative antagonistic potency was expressed as a pA2 value, as defined above.

[3] = system: α-adrenergic receptor; test: α-Adrenergic receptor blocking activity in isolated rabbit aortic strip, norepinephrine as agonist; assay type: cell-based; conditions: contractile response
Procedure: α-Adrenergic receptor blocking activity was determined in vitro by performing cumulative dose-response experiments in the isolated rabbit aortic strip preparation using norepinephrine as the agonist. The contractile response of the rabbit strip preparation in the presence of logarithmically increasing concentrations of the compounds being tested were expressed as percent of the maximal attainable response.

[4] = system: β-adrenergic receptor; test: β-Adrenergic receptor blocking activity in isolated guinea pig atria, isoproterenol as agonist; assay type: cell-based; conditions: from pA2 values, guinea pig atria (β) vs rabbit aortic strip (α)
Procedure: as §1

| Kb [2] [nM] | Structure (SMILES) | decrease in systolic blood pressure from control values ([1]; after 1 hour) | decrease in systolic blood pressure from control values ([1]; after 4 hours) | pA2 for α-adrenergic receptor blocking activity [3] | ratio of β/α blocking activity [4] |
| --- | --- | --- | --- | --- | --- |
| > 10000 | Cc1ccc(N(CC2=NCCN2)c2cccc(O)c2)cc1 [phentolamine] | 62 mm Hg | 60 mm Hg | – | – |
| 15.1 | CC(CCc1ccc2c(c1)OCO2)NCC(O)c1ccc(O)c(C(N)=O)c1.Cl (stereo not shown) [compound 2, 5-[2-[[3-(1,3-benzodioxol-5-yl)-1-methylpropyl]amino]-1-hydroxyethyl]-2-hydroxybenzamide hydrochloride] | 71 mm Hg | 64 mm Hg | 6.08 | 55 |
| 3.47 | COc1ccc(C(O)CNC(C)CCc2ccc3c(c2)OCO3)cc1C(N)=O.Cl (stereo not shown) [compound 1, 5-[2-[[3-(1,3-Benzodioxol-5-yl)-1-methylpropyl]amino]-1-hydroxyethyl]-2-methoxybenzamide hydrochloride] | 42 mm Hg | 67 mm Hg | 5.14 | > 2089 |
| – | CC(C)NCC(O)COc1cccc2ccccc12 (stereo not shown) [propranolol] | did not lower blood pressure significantly | did not lower blood pressure significantly | < 5 | – |
